ChEMBL document CHEMBL1144287, “Synthesis and antifungal activity of noble 5-arylamino- and 6-arylthio-4,7-dioxobenzoselenazoles” (2005)
≈ marks a conversion by molar mass, not a printed value.

How the values were obtained:
Type in all cases: functional
[1] = system: Aspergillus niger; assay: Minimum inhibitory concentration was measured against Aspergillus niger KCTC 1231 using modified Sabouraud dextrose broth; (a)
[2] = system: Pichia kudriavzevii; assay: Minimum inhibitory concentration was measured against Candida krusei ATCC 749 using modified Sabouraud dextrose broth; (a)
[3] = system: Aspergillus flavus; assay: Minimum inhibitory concentration was measured against Aspergillus flavus KCCM 11899 using modified Sabouraud dextrose broth; (a)
[4] = system: Candida albicans; assay: Minimum inhibitory concentration was measured against Candida albicans ATCC 10231 using modified Sabouraud dextrose broth; (a)
[5] = system: Candida tropicalis; assay: Minimum inhibitory concentration was measured against Candida tropicalis ATCC 28775 using modified Sabouraud dextrose broth; (a)

Structure (SMILES) | MIC [1] [µg/mL] | MIC [2] [µg/mL] | MIC [3] [µg/mL] | MIC [4] [µg/mL] | MIC [5] [µg/mL]
COC1=C(Sc2ccc(C)cc2)C(=O)c2[se]c(C)nc2C1=O | 25 (≈ 66.1 µM) | 25 (≈ 66.1 µM) | 50 (≈ 132 µM) | 12.5 (≈ 33 µM) | 6.3 (≈ 16.7 µM)
COC1=CC(=O)c2[se]c(C)nc2C1=O | 25 (≈ 97.6 µM) | 25 (≈ 97.6 µM) | 50 (≈ 195 µM) | 50 (≈ 195 µM) | 12.5 (≈ 48.8 µM)
COC1=C(Sc2ccc(OC)cc2)C(=O)c2[se]c(C)nc2C1=O | 12.5 (≈ 31.7 µM) | 12.5 (≈ 31.7 µM) | 25 (≈ 63.4 µM) | 25 (≈ 63.4 µM) | 12.5 (≈ 31.7 µM)
COc1ccc(NC2=CC(=O)c3[se]c(C)nc3C2=O)cc1 | 12.5 (≈ 36 µM) | 12.5 (≈ 36 µM) | 12.5 (≈ 36 µM) | 12.5 (≈ 36 µM) | 12.5 (≈ 36 µM)
COC1=C(Sc2ccc(F)cc2)C(=O)c2[se]c(C)nc2C1=O | 50 (≈ 131 µM) | 25 (≈ 65.4 µM) | 50 (≈ 131 µM) | 25 (≈ 65.4 µM) | 3.2 (≈ 8.37 µM)
COC1=C(Sc2ccc(F)c(F)c2)C(=O)c2[se]c(C)nc2C1=O | 25 (≈ 62.5 µM) | 6.3 (≈ 15.7 µM) | 25 (≈ 62.5 µM) | 12.5 (≈ 31.2 µM) | 6.3 (≈ 15.7 µM)
COC1=C(Sc2ccc([N+](=O)[O-])cc2)C(=O)c2[se]c(C)nc2C1=O | 50 (≈ 122 µM) | 25 (≈ 61.1 µM) | 12.5 (≈ 30.5 µM) | 3.2 (≈ 7.82 µM) | 1.6 (≈ 3.91 µM)
COC1=C(Sc2ccc(Cl)cc2)C(=O)c2[se]c(C)nc2C1=O | 25 (≈ 62.7 µM) | 25 (≈ 62.7 µM) | 25 (≈ 62.7 µM) | 25 (≈ 62.7 µM) | 12.5 (≈ 31.3 µM)
COC1=C(Sc2ccccc2)C(=O)c2[se]c(C)nc2C1=O | 12.5 (≈ 34.3 µM) | 6.3 (≈ 17.3 µM) | 12.5 (≈ 34.3 µM) | 6.3 (≈ 17.3 µM) | 6.3 (≈ 17.3 µM)
Cc1nc2c([se]1)C(=O)C=C(Nc1ccccc1)C2=O | 6.3 (≈ 19.9 µM) | 6.3 (≈ 19.9 µM) | 6.3 (≈ 19.9 µM) | 6.3 (≈ 19.9 µM) | 6.3 (≈ 19.9 µM)
Cc1nc2c([se]1)C(=O)C=C(Nc1ccc(F)cc1)C2=O | 6.3 (≈ 18.8 µM) | 6.3 (≈ 18.8 µM) | 12.5 (≈ 37.3 µM) | 6.3 (≈ 18.8 µM) | 6.3 (≈ 18.8 µM)
Cc1nc2c([se]1)C(=O)C=C(Nc1ccc(Cl)cc1)C2=O | 12.5 (≈ 35.5 µM) | 12.5 (≈ 35.5 µM) | 12.5 (≈ 35.5 µM) | 12.5 (≈ 35.5 µM) | 12.5 (≈ 35.5 µM)
Cc1nc2c([se]1)C(=O)C=C(Nc1ccc(Br)cc1)C2=O | 25 (≈ 63.1 µM) | 50 (≈ 126 µM) | 50 (≈ 126 µM) | 12.5 (≈ 31.6 µM) | 50 (≈ 126 µM)
Cc1nc2c([se]1)C(=O)C=C(Nc1ccc(C(F)(F)F)cc1)C2=O | 12.5 (≈ 32.5 µM) | 3.2 (≈ 8.31 µM) | 25 (≈ 64.9 µM) | 25 (≈ 64.9 µM) | 3.2 (≈ 8.31 µM)
Cc1nc2c([se]1)C(=O)C=C(Nc1cccc(F)c1)C2=O | 12.5 (≈ 37.3 µM) | 6.3 (≈ 18.8 µM) | 12.5 (≈ 37.3 µM) | 12.5 (≈ 37.3 µM) | 3.2 (≈ 9.55 µM)
Cc1nc2c([se]1)C(=O)C=C(Nc1cc(Cl)cc(Cl)c1)C2=O | 12.5 (≈ 32.4 µM) | 25 (≈ 64.8 µM) | 12.5 (≈ 32.4 µM) | 1.6 (≈ 4.14 µM) | 3.2 (≈ 8.29 µM)
Cc1nc2c([se]1)C(=O)C=C(Nc1ccc(I)cc1)C2=O | 25 (≈ 56.4 µM) | 25 (≈ 56.4 µM) | 25 (≈ 56.4 µM) | 25 (≈ 56.4 µM) | 25 (≈ 56.4 µM)
Cc1ccc(NC2=CC(=O)c3[se]c(C)nc3C2=O)cc1 | 6.3 (≈ 19 µM) | 25 (≈ 75.5 µM) | 12.5 (≈ 37.7 µM) | 6.3 (≈ 19 µM) | 25 (≈ 75.5 µM)
Nc1nc(=O)[nH]cc1F [FLUCYTOSINE] | 12.5 (≈ 96.8 µM) | 50 (≈ 387 µM) | 50 (≈ 387 µM) | 12.5 (≈ 96.8 µM) | 12.5 (≈ 96.8 µM)
